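The compound was tested at five concentrations on cells cultured in 96-well plates, with a 48-hour exposure period. At the GI50, growth is halved. TGI: concentration producing complete growth inhibition.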
Experiments:
Experiment in all cases: NCI-60 cell line screen, 48 h
BT-549 breast = test system: BT-549 breast
MDA-MB-435 = test system: MDA-MB-435
T-47D breast = test system: T-47D breast
PC-3 prostate = test system: PC-3 prostate
M14 melanoma = test system: M14 melanoma
MDA-MB-231 breast = test system: MDA-MB-231 breast

C=C(CN1CCN(c2ccccc2C(F)(F)F)CC1)c1ccc(C(=O)Nc2ccccc2N)cc1
GI50 (BT-549 breast): 2.67 µM
TGI (BT-549 breast): 14 µM
GI50 (MDA-MB-435): 2.72 µM
TGI (MDA-MB-435): > 22.6 µM
GI50 (T-47D breast): 7.67 µM
TGI (T-47D breast): > 100 µM
GI50 (PC-3 prostate): 1.91 µM
TGI (PC-3 prostate): 12 µM
GI50 (M14 melanoma): 4.47 µM
TGI (M14 melanoma): > 100 µM
GI50 (MDA-MB-231 breast): 4.68 µM
TGI (MDA-MB-231 breast): > 56.1 µM

N#Cc1c2ccccc2c2nnc3ccccc3n12
GI50 (BT-549 breast): 12 µM
TGI (BT-549 breast): 45.1 µM
GI50 (MDA-MB-435): 33.5 µM
TGI (MDA-MB-435): > 100 µM
GI50 (T-47D breast): > 100 µM
TGI (T-47D breast): > 100 µM
GI50 (PC-3 prostate): 63.5 µM
TGI (PC-3 prostate): > 100 µM
GI50 (M14 melanoma): 14.9 µM
TGI (M14 melanoma): 62.4 µM

CCN(CC)CC(O)COc1c(Br)c(Br)c(Br)c2c1OC(C)(C)C2 (configuration not stated)
GI50 (BT-549 breast): 4.5 µM
TGI (BT-549 breast): 17.6 µM
GI50 (MDA-MB-435): 2.66 µM
TGI (MDA-MB-435): 7.31 µM
GI50 (T-47D breast): 10.6 µM
TGI (T-47D breast): 41 µM
GI50 (PC-3 prostate): 2.81 µM
TGI (PC-3 prostate): 11.5 µM
GI50 (M14 melanoma): 2.01 µM
TGI (M14 melanoma): 4.12 µM
GI50 (MDA-MB-231 breast): 2.44 µM
TGI (MDA-MB-231 breast): 6.08 µM

COc1ncc(-c2ccc3nccc(C#CCN4CCN(S(C)(=O)=O)CC4)c3c2)cc1NS(=O)(=O)c1ccc(F)cc1F
GI50 (BT-549 breast): 0.039 µM
TGI (BT-549 breast): 0.874 µM
GI50 (MDA-MB-435): 0.0915 µM
TGI (MDA-MB-435): 1.26 µM
GI50 (T-47D breast): < 0.01 µM
TGI (T-47D breast): 0.0178 µM
GI50 (PC-3 prostate): 0.058 µM
TGI (PC-3 prostate): 10.9 µM
GI50 (M14 melanoma): 0.0855 µM
TGI (M14 melanoma): 2.38 µM
GI50 (MDA-MB-231 breast): 0.367 µM
TGI (MDA-MB-231 breast): 17.2 µM

Cc1ccc(NC(=O)c2nc(S(C)(=O)=O)oc2-c2ccc(F)cc2)cc1Nc1ccc2ncn(C)c(=O)c2c1
GI50 (BT-549 breast): 1.48 µM
TGI (BT-549 breast): 2.86 µM
GI50 (MDA-MB-435): 2.48 µM
TGI (MDA-MB-435): 7.28 µM
GI50 (PC-3 prostate): 2.13 µM
TGI (PC-3 prostate): 4.47 µM
GI50 (M14 melanoma): 1.75 µM
TGI (M14 melanoma): 3.72 µM
GI50 (MDA-MB-231 breast): 1.64 µM
TGI (MDA-MB-231 breast): 3.15 µM

O=C(c1cccs1)c1nc2cc(Cl)ccc2[n+]([O-])c1C(F)(F)F
GI50 (BT-549 breast): > 100 µM
TGI (BT-549 breast): > 100 µM
GI50 (MDA-MB-435): > 100 µM
TGI (MDA-MB-435): > 100 µM
GI50 (PC-3 prostate): 71.4 µM
TGI (PC-3 prostate): > 100 µM
GI50 (M14 melanoma): > 100 µM
TGI (M14 melanoma): > 100 µM
GI50 (MDA-MB-231 breast): > 100 µM
TGI (MDA-MB-231 breast): > 100 µM

CCCOc1ccc(/C=N/Nc2cc(C)nc3ccc(Cl)cc23)cc1
GI50 (BT-549 breast): 2.17 µM
TGI (BT-549 breast): 5.46 µM
GI50 (MDA-MB-435): 1.8 µM
TGI (MDA-MB-435): 3.24 µM
GI50 (T-47D breast): 1.71 µM
TGI (T-47D breast): 3.62 µM
GI50 (PC-3 prostate): 1.53 µM
TGI (PC-3 prostate): 3.13 µM
GI50 (M14 melanoma): 1.69 µM
TGI (M14 melanoma): 3.23 µM
GI50 (MDA-MB-231 breast): 1.85 µM
TGI (MDA-MB-231 breast): 3.49 µM

COc1cc2c(cc1OCCCCn1c(-c3cccs3)nc3ccccc31)N=C[C@@H]1CCCN1C2=O
GI50 (BT-549 breast): 0.417 µM
TGI (BT-549 breast): 1.2 µM
GI50 (MDA-MB-435): 1.39 µM
TGI (MDA-MB-435): 3.75 µM
GI50 (T-47D breast): 0.503 µM
TGI (T-47D breast): 3.65 µM
GI50 (M14 melanoma): 1.35 µM
TGI (M14 melanoma): 2.8 µM
GI50 (MDA-MB-231 breast): 1.39 µM
TGI (MDA-MB-231 breast): 5.22 µM

O=Cc1ccc(-c2ccc(-c3ccc(C=O)o3)[se]2)o1
GI50 (BT-549 breast): > 100 µM
TGI (BT-549 breast): > 100 µM
GI50 (MDA-MB-435): > 100 µM
TGI (MDA-MB-435): > 100 µM
GI50 (T-47D breast): > 100 µM
TGI (T-47D breast): > 100 µM
GI50 (PC-3 prostate): > 100 µM
TGI (PC-3 prostate): > 100 µM
GI50 (M14 melanoma): > 100 µM
TGI (M14 melanoma): > 100 µM
GI50 (MDA-MB-231 breast): 54 µM
TGI (MDA-MB-231 breast): > 100 µM

O=C(O)c1cn(C2CC2)c2cc(N3CCN(C(=O)Nc4nc(-c5ccc(Br)cc5)cs4)CC3)c(F)cc2c1=O
GI50 (MDA-MB-435): 1.88 µM
TGI (MDA-MB-435): > 100 µM
GI50 (T-47D breast): 1.57 µM
TGI (T-47D breast): > 100 µM
GI50 (M14 melanoma): 2.24 µM
TGI (M14 melanoma): > 100 µM
GI50 (MDA-MB-231 breast): 3.48 µM
TGI (MDA-MB-231 breast): > 100 µM

O=c1[nH]c(F)nc2c1ncn2C1OC(CO)C(O)C1O (configuration not stated)
GI50 (BT-549 breast): > 100 µM
TGI (BT-549 breast): > 100 µM
GI50 (MDA-MB-435): > 100 µM
TGI (MDA-MB-435): > 100 µM
GI50 (T-47D breast): > 100 µM
TGI (T-47D breast): > 100 µM
GI50 (PC-3 prostate): > 100 µM
TGI (PC-3 prostate): > 100 µM
GI50 (M14 melanoma): > 100 µM
TGI (M14 melanoma): > 100 µM
GI50 (MDA-MB-231 breast): > 100 µM
TGI (MDA-MB-231 breast): > 100 µM

FC(F)(F)c1ccc(-c2ncc(-c3ccc(C(F)(F)F)cc3)c(NCc3cc(C(F)(F)F)cc(C(F)(F)F)c3)n2)cc1
GI50 (BT-549 breast): 7.91 µM
TGI (BT-549 breast): > 100 µM
GI50 (MDA-MB-435): 4.23 µM
TGI (MDA-MB-435): > 100 µM
GI50 (T-47D breast): 3.12 µM
TGI (T-47D breast): 29 µM
GI50 (PC-3 prostate): 3.09 µM
TGI (PC-3 prostate): 18.3 µM
GI50 (M14 melanoma): 4.38 µM
TGI (M14 melanoma): > 100 µM
GI50 (MDA-MB-231 breast): 3.81 µM
TGI (MDA-MB-231 breast): 14.8 µM

O=C(/C=C/c1nnc2n(Cc3ccccc3)c(=O)c3c4c(sc3n12)CCCC4)c1ccccc1
GI50 (MDA-MB-435): 3.54 µM
GI50 (PC-3 prostate): 1.42 µM
TGI (PC-3 prostate): 4.44 µM
TGI (M14 melanoma): > 100 µM
GI50 (MDA-MB-231 breast): 0.219 µM
TGI (MDA-MB-231 breast): 0.55 µM

NC(=N\N=C/c1ccc(Cl)cc1Cl)/C(N)=N\N=C/c1ccc(Cl)cc1Cl
GI50 (BT-549 breast): 45.3 µM
TGI (BT-549 breast): > 93.2 µM
GI50 (MDA-MB-435): > 100 µM
TGI (MDA-MB-435): > 100 µM
GI50 (T-47D breast): 1.35 µM
TGI (T-47D breast): > 76.4 µM
GI50 (PC-3 prostate): > 100 µM
TGI (PC-3 prostate): > 100 µM
GI50 (M14 melanoma): > 83.1 µM
TGI (M14 melanoma): > 100 µM
GI50 (MDA-MB-231 breast): 17.1 µM
TGI (MDA-MB-231 breast): > 100 µM

FC(F)(F)c1cc(-c2ncn(/C=C\c3nnco3)n2)cc(C(F)(F)F)c1
GI50 (BT-549 breast): 0.0719 µM
TGI (BT-549 breast): 2.44 µM
GI50 (MDA-MB-435): 0.0581 µM
TGI (MDA-MB-435): 1.51 µM
GI50 (T-47D breast): 0.0567 µM
TGI (T-47D breast): > 41.5 µM
GI50 (PC-3 prostate): 0.093 µM
TGI (PC-3 prostate): > 36.9 µM
GI50 (M14 melanoma): 0.372 µM
TGI (M14 melanoma): > 34.6 µM
GI50 (MDA-MB-231 breast): 0.132 µM
TGI (MDA-MB-231 breast): > 73.9 µM

CCCCCCc1cc2cc(-c3csc(/C=C/c4ccccc4)n3)c(=O)oc2cc1O
GI50 (BT-549 breast): 35.6 µM
TGI (BT-549 breast): > 100 µM
GI50 (MDA-MB-435): 12.9 µM
TGI (MDA-MB-435): 27.2 µM
GI50 (T-47D breast): 13.9 µM
TGI (T-47D breast): > 100 µM
GI50 (PC-3 prostate): 5.39 µM
TGI (PC-3 prostate): 34.4 µM
GI50 (MDA-MB-231 breast): 8.82 µM
TGI (MDA-MB-231 breast): 31.1 µM

Cc1cc(C(O)(c2ccc(Nc3ccccc3)cc2)c2ccc(Nc3ccc(S(=O)(=O)O)cc3)cc2)ccc1N (configuration not stated)
GI50 (BT-549 breast): 1.84 µM
TGI (BT-549 breast): 5.61 µM
GI50 (MDA-MB-435): 1.28 µM
TGI (MDA-MB-435): 2.69 µM
GI50 (T-47D breast): 0.609 µM
TGI (T-47D breast): 3.18 µM
GI50 (PC-3 prostate): 1.31 µM
TGI (PC-3 prostate): 6.18 µM
GI50 (M14 melanoma): 1.2 µM
TGI (M14 melanoma): 2.98 µM

O=C(NS(=O)(=O)c1ccc(NC[C@H]2COCCO2)c([N+](=O)[O-])c1)c1ccc(N2CCN(CC3=C(c4ccc(Cl)cc4)CC4(CCC4)CC3)CC2)cc1Oc1cnc2[nH]ccc2c1
GI50 (BT-549 breast): 2.42 µM
TGI (BT-549 breast): 5.39 µM
GI50 (T-47D breast): 2.24 µM
TGI (T-47D breast): 8.99 µM
GI50 (PC-3 prostate): 2.43 µM
TGI (PC-3 prostate): 13.5 µM
GI50 (M14 melanoma): 2.11 µM
TGI (M14 melanoma): 4.99 µM
GI50 (MDA-MB-231 breast): 1.62 µM
TGI (MDA-MB-231 breast): 3.21 µM

CCC(C)(C)[C@H](NC(=O)[C@H]1CCCCN1C)C(=O)N(C)[C@H](C[C@@H](OC(C)=O)c1nc(C(=O)N[C@@H](Cc2ccccc2)C[C@H](C)C(=O)O)cs1)C(C)C
GI50 (BT-549 breast): < 0.00167 µM
TGI (BT-549 breast): 0.0136 µM
GI50 (PC-3 prostate): < 0.00167 µM
TGI (PC-3 prostate): > 16.7 µM
GI50 (MDA-MB-231 breast): < 0.00167 µM

Reference: PubChem BioAssay (NCI)
